Results reported in US20030125349A1, “Medicament containing cilansetron for the treatment of non-obstipative male irritable bowel syndrome patients” (Solvay Pharmaceuticals GmbH, priority 2000, published 2003).

Legend:
[1] = system: non-obstipative IBS patients; test: 12-week placebo-controlled clinical double-blind study, adequate alleviation of IBS symptoms; assay type: in vivo, human; conditions: for Final success rate: all patients (471; both sexes); for Success rate (responder rate, adequate alleviation of IBS symptoms): provisional result (454 patients)
Source text: The effect of cilansetron on non-obstipative IBS patients of both sexes was investigated in a 12-week placebo-controlled clinical double-blind study with randomized selection and parallel test groups. […] Likewise, those patients were included in the study who responded “No” to the question about pain/feeling of unwellness in the lower abdomen only in ≦50% of the cases or who judged their pain/feeling of unwellness in the lower abdomen as “restrictive” for <2 times over a two-week observation period. Cilansetron was used in doses of 1, 2, 8 and 16 mg. The patients were checked weekly for “adequate alleviation” (=primary effectiveness parameter) of their IBS symptoms (stomach pains such as pains in the abdomen, abnormal bowel activity). Stomach pains such as pains in the abdomen, nature of the stools and stool frequency were rated daily by the patients (=secondary effectiveness parameter). In a provisional result of the double-blind study, the data of a total of 454 patients (297 female patients and 157 male patients) were evaluated and plotted in the table below. Corresponding to the criteria on which the clinical double-blind study was based, in both patient subgroups of male IBS patients and female IBS patients the success rates relating to the “adequate alleviation” of the IBS symptoms as set forth in the table below were noted: The “primary effectiveness parameter” corresponds to the success rate (=“responder rate”) to the question, which was put weekly to the patients, as to whether they had experienced “adequate alleviation” of their IBS symptoms (pain/feeling of unwellness in the lower abdomen, abnormal bowel activity) during the course of the previous week. A “responder” is regarded as a patient who was treated for at least four weeks and who responded “Yes” to the question posed of whether “adequate alleviation” of his/her IBS symptoms had occurred for at least half of his/her treatment period. At the end of the double-blind study, the data of a total of 471 patients (308 female patients and 163 male patients) were evaluated. The final success rates were 40% for the placebo group, 62% for the dose 1 mg cilansetron (TID), 53% for the dose 2 mg cilansetron (TID), 55% for the dose 8 mg cilansetron (TID) and 63% for the dose 16 mg cilansetron (TID).

[2] = system: non-obstipative IBS patients; conditions: clinical tests, WO 99/17755, cited from earlier work

| SMILES | Final success rate ([1]; 1 mg TID, end of study) | Final success rate ([1]; 2 mg TID, end of study) | Final success rate ([1]; 8 mg TID, end of study) | Final success rate ([1]; 16 mg TID, end of study) | Response to treatment of non-obstipative IBS patients of both sexes ([1]; doses 1, 2, 8 and 16 mg) | Final success rates, male compared with female patient groups ([1]; end of study, greatest differences at 1 mg TID) | Success rate (responder rate, adequate alleviation of IBS symptoms) ([1]; female patients, 1 mg TID) | Success rate (responder rate, adequate alleviation of IBS symptoms) ([1]; female patients, 2 mg TID) | Success rate (responder rate, adequate alleviation of IBS symptoms) ([1]; female patients, 8 mg TID) | Success rate (responder rate, adequate alleviation of IBS symptoms) ([1]; female patients, 16 mg TID) | Success rate (responder rate, adequate alleviation of IBS symptoms) ([1]; male patients, 1 mg TID) | Success rate (responder rate, adequate alleviation of IBS symptoms) ([1]; male patients, 2 mg TID) | Success rate (responder rate, adequate alleviation of IBS symptoms) ([1]; male patients, 8 mg TID) | Success rate (responder rate, adequate alleviation of IBS symptoms) ([1]; male patients, 16 mg TID) | Effectiveness on female IBS patients compared with male IBS patients [2] | Improvement in condition compared with the placebo group ([2]; male test subjects) |
| --- | --- | --- | --- | --- | --- | --- | --- | --- | --- | --- | --- | --- | --- | --- | --- | --- |
| Cc1nccn1C[C@H]1CCc2c(c3cccc4c3n2CCC4)C1=O [Cilansetron, (R)-(−)-4,5,6,8,9,10-hexahydro-10-[(2-methyl-1H-imidazol-1-yl)methyl]-11H-pyrido-[3,2,1-jk]-carbazol-11-one] | 62% | 53% | 55% | 63% | respond to the treatment with cilansetron in all the dosages investigated | very similar for the male and female patient groups | 69.6% | 60.3% | 56.9% | 61.4% | 51.3% | 63.0% | 56.3% | 58.6% | – | – |
| Cc1[nH]cnc1CN1CCc2c(c3ccccc3n2C)C1=O [alosetron] | – | – | – | – | – | – | – | – | – | – | – | – | – | – | significantly better effectiveness on female IBS patients | no significant improvement in condition compared with the placebo group |
